Results on 24 compounds are retold here after paper PMC9571937, “Synthesis and Structure–Activity Relationship Studies of Pyrido [1,2-e]Purine-2,4(1H,3H)-Dione Derivatives Targeting Flavin-Dependent Thymidylate Synthase in Mycobacterium tuberculosis” (Molecules, 2022).

Like-named read-outs stand apart in the source and are kept apart here.

The test system of data set [1] is ThyX. The settings on record: cited from earlier work.
The test system of data set [2] is viral pathogens. Briefly: Evaluation on viral pathogens.
Data set [3] addresses T1, Mtb ThyX (Mycobacterium tuberculosis, UniProt P9WG57). Nature of the data set: M. tuberculosis ThyX NADPH oxidase assay. The format is biochemical. The settings on record: for Inhibition % (Mtb ThyX) / inhibition at 200 µM: 200 μM compound.
For data set [4], the target named is T1, Mtb ThyX. Briefly: M. tuberculosis ThyX tritium release assay. Format: biochemical. The settings on record: 200 µM compound; for ThyX inhibition, tritium release assay: 200 µM.
Data set [5] is described as follows: in vitro. The settings on record: human. Format: cell-based. On the procedure: Assays were performed in human peripheral blood mononuclear (PBM) cells via MTS assay using the CellTiter 96® Non-Radioactive Cell Proliferation (Promega) kit. Cytotoxicity was expressed as the concentration of test compounds that inhibited cell growth by 50% (CC50).
Where [6] appears, read: 50 µM inhibitor concentration, read-out: ThyX inhibition at 50 µM of inhibitors.
Where [7] appears, read: NADPH oxidase assay, 50 µM FAD, read-out: Inhibition % (Mtb ThyX).
Setting [8] is: absence of added FAD, read-out: ThyX inhibition without FAD addition.

T1 sequence (P9WG57 whole entry): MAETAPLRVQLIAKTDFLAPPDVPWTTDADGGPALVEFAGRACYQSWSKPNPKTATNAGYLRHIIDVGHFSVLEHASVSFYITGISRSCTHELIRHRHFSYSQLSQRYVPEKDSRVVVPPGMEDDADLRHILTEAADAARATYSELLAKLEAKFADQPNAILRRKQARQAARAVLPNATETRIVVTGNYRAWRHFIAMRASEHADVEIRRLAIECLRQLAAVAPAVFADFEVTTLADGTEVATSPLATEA

Consider `CCOC(=O)[C@@H]1CSC(c2ccccc2)N1C(=O)c1cn(CCCNC(=O)C(F)(F)F)nn1` (stereo partly drawn) [Compound 1], for which the IC50 in data set [1] (read-out: IC50 against ThyX) is 57 nM.
As for `O=C1C(O)=C(c2ccco2)C(=O)c2ccccc21` [Compound 2], the Ki in data set [1] (read-out: inhibitory Ki against ThyX) was 28 nM.
Regarding `CCCCCCCC(=O)NCC#Cc1cn(C2CC(O)C(COP(=O)(O)O)O2)c(=O)[nH]c1=O` (stereo not drawn) [Compound 3], in data set [1] (C5-modified dUMP analogs, read-out: IC50), the IC50 was 910 nM.
As for `O=c1[nH]c2c(nc3ccccn32)c(=O)n1-c1ccc(F)cc1` [Compound 9a, 3-(4-Fluorophenyl)pyrido [1,2-e]purine-2,4(1H,3H)-dione], the “activity on viral pathogens” value in data set [2] is on record as “some promiscuous activity”. Also, the toxicity entry in data set [2] (evaluation on viral pathogens) is recorded as “without toxicity”. The inhibition at 50 µM in data set [3] (setting [6]) turned out to be 18.4%. Besides, the “Inhibition % (Mtb ThyX)” value in data set [3] (NADPH oxidase assay, 50 µM FAD) is on record as 59.4%. Also, the inhibition at 200 µM is 59.5% in data set [3] (setting [7]), 76.1% in data set [3] (setting [8]) and 59.5% in data set [4]. Besides, the IC50 in data set [3] (calculated for 9a) was 95000 nM.
As to `O=c1[nH]c2c(nc3ccccn32)c(=O)n1-c1ccc(Cl)cc1` [Compound 9b, 3-(4-Chlorophenyl)pyrido [1,2-e]purine-2,4(1H,3H)-dione], the inhibition at 50 µM in data set [3] (setting [6]) was 2.2%. The inhibition at 200 µM in data set [3] (setting [7]) was determined as 49.8%; in data set [3] (setting [8]), 12.6%; in data set [4], 77.1%. Besides, in data set [4], the “ThyX inhibition, tritium release assay” value turned out to be 69.2%.
Regarding `Cc1ccc(-n2c(=O)[nH]c3c(nc4ccccn43)c2=O)cc1` [Compound 9d, 3-(p-Tolyl)pyrido [1,2-e]purine-2,4(1H,3H)-dione], the inhibition at 50 µM in data set [3] (setting [6]) amounted to 2.6%. Also, the “Inhibition % (Mtb ThyX)” value in data set [3] (NADPH oxidase assay, 50 µM FAD) was 55.4%. For the same compound, the inhibition at 200 µM in data set [3] (setting [7]) was found to be 55%; in data set [3] (setting [8]) it was 20.4%; in data set [4], 69.2%. Further, the “ThyX inhibition, tritium release assay” value in data set [4] was found to be 77.1%.
Regarding `CCCCCCNC(=O)NCC#Cc1ccn2c(c1)nc1c(=O)n(-c3ccc(F)cc3)c(=O)[nH]c12` [Compound 20g, 1-[3-[3-(p-Fluorophenyl)-2,4-dioxo-1H-purino [9,8-a]pyridin-7-yl]prop-2-ynyl]-3-hexyl-urea], the inhibition at 200 µM in data set [3] (setting [7]) turned out to be 0%.
Take `O=c1[nH]c2c(nc3ccc(C#CCCc4ccccc4)cn32)c(=O)n1-c1ccc(F)cc1` [Compound 21a, 3-(p-Fluorophenyl)-8-(4-phenylbut-1-ynyl)-1H-purino [9,8-a]pyridine-2,4-dione]: in data set [3] (setting [7]), the inhibition at 200 µM stood at 69.1%.
As for `CCCCC#Cc1ccc2nc3c(=O)n(-c4ccc(F)cc4)c(=O)[nH]c3n2c1` [Compound 21c, 3-(p-Fluorophenyl)-8-hex-1-ynyl-1H-purino [9,8-a]pyridine-2,4-dione], the inhibition at 200 µM in data set [3] (setting [7]) stood at 0%.
As to `CCCCCC#Cc1ccc2nc3c(=O)n(-c4ccc(F)cc4)c(=O)[nH]c3n2c1` [Compound 21d, 3-(p-Fluorophenyl)-8-hept-1-ynyl-1H-purino [9,8-a]pyridine-2,4-dione], the inhibition at 200 µM in data set [3] (setting [7]) was 32.5%.
On the same count and under the same terms, then `CCCCCCC#Cc1ccc2nc3c(=O)n(-c4ccc(F)cc4)c(=O)[nH]c3n2c1` [Compound 21e, 3-(p-Fluorophenyl)-8-oct-1-ynyl-1H-purino [9,8-a]pyridine-2,4-dione], with 31.7%; and `CCCCCCCC(=O)NCC#Cc1ccc2nc3c(=O)n(-c4ccc(F)cc4)c(=O)[nH]c3n2c1` [Compound 21f, N-[3-[3-(p-fluorophenyl)-2,4-dioxo-1H-purino [9,8-a]pyridin-8-yl]prop-2-ynyl]octanamide], with 16.9%; and `CCCCCCNC(=O)NCC#Cc1ccc2nc3c(=O)n(-c4ccc(F)cc4)c(=O)[nH]c3n2c1` [Compound 21g, 1-[3-[3-(p-Fluorophenyl)-2,4-dioxo-1H-purino [9,8-a]pyridin-8-yl]prop-2-ynyl]-3-hexyl-urea], with 28.2%.
On to `O=c1[nH]c2c(nc3cc(-c4ccccc4)ccn32)c(=O)n1-c1ccc(F)cc1` [Compound 22a, 3-(p-Fluorophenyl)-7-phenyl-1H-purino [9,8-a]pyridine-2,4-dione], for which the inhibition at 200 µM in data set [3] (setting [7]) stood at 20.7%.
As to `Cc1ccc(-c2ccn3c(c2)nc2c(=O)n(-c4ccc(F)cc4)c(=O)[nH]c23)cc1` [Compound 22b, 3-(p-Fluorophenyl)-7-(p-tolyl)-1H-purino [9,8-a]pyridine-2,4-dione], the inhibition at 200 µM in data set [3] (setting [7]) amounted to 45.7%.
Still for that read-out and setting: then `COc1ccc(-c2ccn3c(c2)nc2c(=O)n(-c4ccc(F)cc4)c(=O)[nH]c23)cc1` [Compound 22c, 3-(p-Fluorophenyl)-7-(p-methoxyphenyl)-1H-purino [9,8-a]pyridine-2,4-dione], with ≤ 28%; and `O=c1[nH]c2c(nc3cc(-c4ccc(OC(F)(F)F)cc4)ccn32)c(=O)n1-c1ccc(F)cc1` [Compound 22d, 3-(p-fluorophenyl)-7-[p-(trifluoromethoxy)phenyl]-1H-purino [9,8-a]pyridine-2,4-dione], with ≤ 28%.
On the same count and under the same terms, then `O=c1[nH]c2c(nc3cc(-c4ccc(F)cc4)ccn32)c(=O)n1-c1ccc(F)cc1` [Compound 22e, 3,7-Bis(p-fluorophenyl)-1H-purino [9,8-a]pyridine-2,4-dione], with ≤ 28%.
Take `O=c1[nH]c2c(nc3ccc(-c4ccccc4)cn32)c(=O)n1-c1ccc(F)cc1` [Compound 23a, 3-(p-Fluorophenyl)-8-phenyl-1H-purino [9,8-a]pyridine-2,4-dione]: the cytotoxic concentration (CC50) in data set [5] is > 100000 nM. Also, the inhibition at 200 µM in data set [3] (setting [7]) was determined as 84.3%.
With `Cc1ccc(-c2ccc3nc4c(=O)n(-c5ccc(F)cc5)c(=O)[nH]c4n3c2)cc1` [Compound 23b, 3-(p-Fluorophenyl)-8-(p-tolyl)-1H-purino [9,8-a]pyridine-2,4-dione], in data set [3] (setting [7]), the inhibition at 200 µM is 44.4%.
Consider `COc1ccc(-c2ccc3nc4c(=O)n(-c5ccc(F)cc5)c(=O)[nH]c4n3c2)cc1` [Compound 23c, 3-(p-Fluorophenyl)-8-(p-methoxyphenyl)-1H-purino [9,8-a]pyridine-2,4-dione], for which the inhibition at 200 µM in data set [3] (setting [7]) was found to be 35.4%.
The same measure, in the same setting: then `O=c1[nH]c2c(nc3ccc(-c4ccc(OC(F)(F)F)cc4)cn32)c(=O)n1-c1ccc(F)cc1` [Compound 23d, 3-(p-Fluorophenyl)-8-[p-(trifluoromethoxy)phenyl]-1H-purino [9,8-a]pyridine-2,4-dione], with 29.4%.
Take `O=c1[nH]c2c(nc3ccc(-c4ccc(F)cc4)cn32)c(=O)n1-c1ccc(F)cc1` [Compound 23e, 3,8-Bis(p-Fluorophenyl)-1H-purino [9,8-a]pyridine-2,4-dione]: the inhibition at 200 µM in data set [3] (setting [7]) was determined as 43.1%.
Turning to `Cc1cc(N2CCN(C(=O)CCN3C(=O)COc4ccccc43)CC2)nc(C(C)C)n1` [Compound B1-PP146, reference compound], the inhibition at 50 µM in data set [3] (positive control, value at 50 μM, NADPH oxidase assay, read-out: Inhibition % (Mtb ThyX)) was 95.1%. Further, in data set [1] (read-out: IC50 against ThyX), the IC50 is 690 nM.

In general, IC50 refers to the concentration needed to halve the response being measured. One may read the Ki as a dissociation constant, usually derived from enzyme kinetics or from competition with a known ligand. For orientation: inhibition means the percentage by which the read-out fell short of the control. Usually CC50 stands for the concentration that lowers cell viability or growth by half. Lower therefore signals harm at low concentration.
